Test results from patent US9487515B2, “Compounds modulating c-fms and/or c-kit activity and uses therefor” (Plexxikon Inc., priority 2006, dated 2016).

Target: c-kit (Homo sapiens, UniProt P10721)
Assay: c-kit assays of Examples 40 and 41 (AlphaScreen kinase assays at 10 and 100 μM ATP, 33P-ATP filter assay, M-07e SCF-stimulated proliferation and phosphorylation)

Chain of c-kit (P10721 with tags, fused parts or gaps): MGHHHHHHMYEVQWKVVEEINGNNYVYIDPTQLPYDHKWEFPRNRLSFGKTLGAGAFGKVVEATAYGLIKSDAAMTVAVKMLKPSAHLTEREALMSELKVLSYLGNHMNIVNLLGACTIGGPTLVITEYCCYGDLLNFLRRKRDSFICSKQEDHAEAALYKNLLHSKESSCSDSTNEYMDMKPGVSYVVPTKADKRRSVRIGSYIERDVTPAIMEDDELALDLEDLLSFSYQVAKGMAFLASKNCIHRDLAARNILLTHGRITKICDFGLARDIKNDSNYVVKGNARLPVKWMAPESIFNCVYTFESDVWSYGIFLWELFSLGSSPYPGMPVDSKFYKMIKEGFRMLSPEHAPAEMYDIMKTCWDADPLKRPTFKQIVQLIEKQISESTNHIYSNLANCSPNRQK

SMILES | IC50 [µM]
FC(F)(F)c1ccc(CNc2nc(Cl)c(Cc3c[nH]c4ncc(Cl)cc34)s2)cn1 [P-0242, [4-Chloro-5-(5-chloro-1H-pyrrolo[2,3-b]pyridin-3-ylmethyl)-thiazol-2-yl]-(6-trifluoromethyl-pyridin-3-ylmethyl)-amine] | < 1
Cc1cc(C(=O)Nc2ccc(Cc3c[nH]c4ncccc34)cn2)ccc1F [P-0109, 4-Fluoro-3-methyl-N-[5-(1H-pyrrolo[2,3-b]pyridin-3-ylmethyl)-pyridin-2-yl]-benzamide] | < 1
Clc1cnc2[nH]cc(Cc3sc(NCc4ccccc4)nc3Cl)c2c1 [P-0192, Benzyl-[4-chloro-5-(5-chloro-1H-pyrrolo[2,3-b]pyridin-3-ylmethyl)-thiazol-2-yl]-amine] | < 1
Cc1cc(C(=O)Nc2ccc(Cc3c[nH]c4ncccc34)cn2)n(C)n1 [P-0102, 2,5-Dimethyl-2H-pyrazole-3-carboxylic acid [5-(1H-pyrrolo[2,3-b]pyridin-3-ylmethyl)-pyridin-2-yl]-amide] | < 1
Fc1ccc(CNc2nc(Cl)c(Cc3c[nH]c4ncc(Cl)cc34)s2)c(F)c1 [P-0245, [4-Chloro-5-(5-chloro-1H-pyrrolo[2,3-b]pyridin-3-ylmethyl)-thiazol-2-yl]-(2,4-difluoro-benzyl)-amine] | < 1
O=C(c1ccc(NCc2ccc(F)cc2)nc1)c1c[nH]c2ncccc12 [P-0015, [6-(4-Fluoro-benzylamino)-pyridin-3-yl]-(1H-pyrrolo[2,3-b]pyridin-3-yl)-methanone] | < 1
CCc1nc(C)c(CNc2nc(Cl)c(Cc3c[nH]c4ncc(Cl)cc34)s2)[nH]1 [P-0197, [4-Chloro-5-(5-chloro-1H-pyrrolo[2,3-b]pyridin-3-ylmethyl)-thiazol-2-yl]-(2-ethyl-5-methyl-3H-imidazol-4-ylmethyl)-amine] | < 1
O=C(Nc1ccc(Cc2c[nH]c3ncccc23)cn1)c1ccncc1 [P-0105, N-[5-(1H-Pyrrolo[2,3-b]pyridin-3-ylmethyl)-pyridin-2-yl]-isonicotinamide] | < 1
COc1ncccc1CNc1ccc(Cc2c[nH]c3ncccc23)cn1 [P-0215, (2-Methoxy-pyridin-3-ylmethyl)-[5-(1H-pyrrolo[2,3-b]pyridin-3-ylmethyl)-pyridin-2-yl]-amine] | < 1
c1cncc(CNc2ccc(Cc3c[nH]c4ncccc34)cn2)c1 [P-0094, Pyridin-3-ylmethyl-[5-(1H-pyrrolo[2,3-b]pyridin-3-ylmethyl)-pyridin-2-yl]-amine] | < 1
FC(F)(F)c1ccc(CNc2ccc(Cc3c[nH]c4ncccc34)cn2)cn1 [P-0182, [5-(1H-Pyrrolo[2,3-b]pyridin-3-ylmethyl)-pyridin-2-yl]-(6-trifluoromethyl-pyridin-3-ylmethyl)-amine] | < 1
c1cnc2[nH]cc(Cc3ccc(NCCN4CCCC4)nc3)c2c1 [P-0096, (2-Pyrrolidin-1-yl-ethyl)-[5-(1H-pyrrolo[2,3-b]pyridin-3-ylmethyl)-pyridin-2-yl]-amine] | < 1
Fc1ccccc1CNc1ccc(Cc2c[nH]c3ncccc23)cn1 [P-0213, (2-Fluoro-benzyl)-[5-(1H-pyrrolo[2,3-b]pyridin-3-ylmethyl)-pyridin-2-yl]-amine] | < 1
O=C(Nc1ccc(Cc2c[nH]c3ncccc23)cn1)c1cccc(Cl)c1 [P-0111, 3-chloro-N-[5-(1H-pyrrolo[2,3-b]pyridin-3-ylmethyl)-pyridin-2-yl]-benzamide] | < 1
Fc1cccc(CCNc2ccc(Cc3c[nH]c4ncccc34)cn2)c1 [P-0128, [2-(3-Fluoro-phenyl)-ethyl]-[5-(1H-pyrrolo[2,3-b]pyridin-3-ylmethyl)-pyridin-2-yl]-amine] | < 1
O=C(Nc1ccc(Cc2c[nH]c3ncccc23)cn1)c1cccs1 [P-0103, Thiophene-2-carboxylic acid [5-(1H-pyrrolo[2,3-b]pyridin-3-ylmethyl)-pyridin-2-yl]-amide] | < 1
Clc1ccccc1CNc1ccc(Cc2c[nH]c3ncccc23)cn1 [P-0216, (2-Chloro-benzyl)-[5-(1H-pyrrolo[2,3-b]pyridin-3-ylmethyl)-pyridin-2-yl]-amine] | < 1
FC(F)(F)c1ccc(CNc2nc(Cl)c(Cc3c[nH]c4ncccc34)s2)cn1 [P-0173, [4-Chloro-5-(1H-pyrrolo[2,3-b]pyridin-3-ylmethyl)-thiazol-2-yl]-(6-trifluoromethyl-pyridin-3-ylmethyl)-amine] | < 1
O=C(Nc1ccc(Cc2c[nH]c3ncccc23)cn1)c1ccc(F)c(C(F)(F)F)c1 [P-0112, 4-Fluoro-N-[5-(1H-pyrrolo[2,3-b]pyridin-3-ylmethyl)-pyridin-2-yl]-3-trifluoromethyl-benzamide] | < 1
CCc1nc(C)c(CNc2nc(Cl)c(Cc3c[nH]c4ncccc34)s2)[nH]1 [P-0205, [4-Chloro-5-(1H-pyrrolo[2,3-b]pyridin-3-ylmethyl)-thiazol-2-yl]-(2-ethyl-5-methyl-3H-imidazol-4-ylmethyl)-amine] | < 1
Clc1ccc(CNc2ccc(Cc3c[nH]c4ncc(Br)cc34)cn2)cc1 [P-0038, [5-(5-Bromo-1H-pyrrolo[2,3-b]pyridin-3-ylmethyl)-pyridin-2-yl]-(4-chloro-benzyl)-amine] | < 1
Cc1cc(CNc2ccc(Cc3c[nH]c4ncccc34)cn2)no1 [P-0095, (5-Methyl-isoxazol-3-ylmethyl)-[5-(1H-pyrrolo[2,3-b]pyridin-3-ylmethyl)-pyridin-2-yl]-amine] | < 1
O=C(c1ccc(NCc2cccs2)nc1)c1c[nH]c2ncccc12 [P-0018, (1H-Pyrrolo[2,3-b]pyridin-3-yl)-{6-[(thiophen-2-ylmethyl)-amino]-pyridin-3-yl}-methanone] | < 1

The remaining lines, values ahead:

IC50 [µM] | SMILES
< 1 | FC(F)(F)c1cccc(CNc2ncc(Cc3c[nH]c4ncc(Cl)cc34)cn2)c1 [P-0268, [5-(5-Chloro-1H-pyrrolo[2,3-b]pyridin-3-ylmethyl)-pyrimidin-2-yl]-(3-trifluoromethyl-benzyl)-amine]
< 1 | Clc1ccc(CNc2ncc(Cc3c[nH]c4ncccc34)cn2)cc1 [P-0307, (4-Chloro-benzyl)-[5-(1H-pyrrolo[2,3-b]pyridin-3-ylmethyl)-pyrimidin-2-yl]-amine]
< 1 | FC(F)(F)COc1ncccc1CNc1ccc(Cc2c[nH]c3ncccc23)cn1 [P-0376, [5-(1H-Pyrrolo[2,3-b]pyridin-3-ylmethyl)-pyridin-2-yl]-[2-(2,2,2-trifluoro-ethoxy)-pyridin-3-ylmethyl]-amine]
< 1 | N#Cc1cnc2[nH]cc(Cc3ccc(NCc4ccccc4C(F)(F)F)nc3)c2c1 [P-0274, 3-[6-(2-Trifluoromethyl-benzylamino)-pyridin-3-ylmethyl]-1H-pyrrolo[2,3-b]pyridine-5-carbonitrile]
< 1 | COc1ncccc1CNc1ccc(Cc2c[nH]c3ncc(C)cc23)cn1 [P-0285, (2-Methoxy-pyridin-3-ylmethyl)-[5-(5-methyl-1H-pyrrolo[2,3-b]pyridin-3-ylmethyl)-pyridin-2-yl]-amine]
< 1 | COc1ccc(CNc2ccc(Cc3c[nH]c4ncc(Cl)cc34)cn2)cn1 [P-0283, [5-(5-Chloro-1H-pyrrolo[2,3-b]pyridin-3-ylmethyl)-pyridin-2-yl]-(6-methoxy-pyridin-3-ylmethyl)-amine]
< 1 | Fc1ccc(C(F)(F)F)c(CNc2ccc(Cc3c[nH]c4ncccc34)cn2)c1 [P-0375, (5-Fluoro-2-trifluoromethyl-benzyl)-[5-(1H-pyrrolo[2,3-b]pyridin-3-ylmethyl)-pyridin-2-yl]-amine]
< 1 | FC(F)(F)c1cccc(CNc2ccc(Cc3c[nH]c4ncccc34)cn2)c1Cl [P-0363, (2-Chloro-3-trifluoromethyl-benzyl)-[5-(1H-pyrrolo[2,3-b]pyridin-3-ylmethyl)-pyridin-2-yl]-amine]
< 1 | COc1cnc2[nH]cc(Cc3ccc(NCc4cc(F)ccc4F)nc3)c2c1 [P-0330, (2,5-Difluoro-benzyl)-[5-(5-methoxy-1H-pyrrolo[2,3-b]pyridin-3-ylmethyl)-pyridin-2-yl]-amine]
< 1 | Fc1c(Cl)cccc1CNc1ccc(Cc2c[nH]c3ncccc23)cn1 [P-0354, (3-Chloro-2-fluoro-benzyl)-[5-(1H-pyrrolo[2,3-b]pyridin-3-ylmethyl)-pyridin-2-yl]-amine]
< 1 | Fc1cnc2[nH]cc(Cc3ccc(NCc4ccccc4C(F)(F)F)nc3)c2c1 [P-0325, [5-(5-Fluoro-1H-pyrrolo[2,3-b]pyridin-3-ylmethyl)-pyridin-2-yl]-(2-trifluoromethyl-benzyl)-amine]
< 1 | Fc1cccc(F)c1CNc1ccc(Cc2c[nH]c3ncccc23)cn1 [P-0340, (2,6-Difluoro-benzyl)-[5-(1H-pyrrolo[2,3-b]pyridin-3-ylmethyl)-pyridin-2-yl]-amine]
< 1 | CCCS(=O)(=O)Nc1ccc(F)c(CNc2ccc(Cc3c[nH]c4ncc(Cl)cc34)cn2)c1F [P-0259, Propane-1-sulfonic acid (3-{[5-(5-chloro-1H-pyrrolo[2,3-b]pyridin-3-ylmethyl)-pyridin-2-ylamino]-methyl}-2,4-difluoro-phenyl)-amide]
< 1 | Fc1cc(C(F)(F)F)ccc1CNc1ncc(Cc2c[nH]c3ncccc23)cn1 [P-0319, (2-Fluoro-4-trifluoromethyl-benzyl)-[5-(1H-pyrrolo[2,3-b]pyridin-3-ylmethyl)-pyrimidin-2-yl]-amine]
< 1 | COc1cnc2[nH]cc(Cc3ccc(NCc4c(F)cccc4F)nc3)c2c1 [P-0334, (2,6-Difluoro-benzyl)-[5-(5-methoxy-1H-pyrrolo[2,3-b]pyridin-3-ylmethyl)-pyridin-2-yl]-amine]
< 1 | N#Cc1cnc2[nH]cc(Cc3ccc(NCc4ccc(C(F)(F)F)cc4)nc3)c2c1 [P-0269, 3-[6-(4-Trifluoromethyl-benzylamino)-pyridin-3-ylmethyl]-1H-pyrrolo[2,3-b]pyridine-5-carbonitrile]
< 1 | Cc1cnc2[nH]cc(Cc3ccc(NCc4ccccc4F)nc3)c2c1 [P-0272, (2-Fluoro-benzyl)-[5-(5-methyl-1H-pyrrolo[2,3-b]pyridin-3-ylmethyl)-pyridin-2-yl]-amine]
